pIC50: −log10 of the molar value.
Key:
[1] = test system: SNORD115; assay: SNORD115 steady state RNA (qRT-PCR) in GABAergic iPSC-derived neurons; details: 10-point dose curve 1 nM-30 μM; 14 DIV to 20 DIV
[2] = test system: SNORD109A/B; assay: SNORD109A/B steady state RNA (qRT-PCR) in GABAergic iPSC-derived neurons; details: 10-point dose curve 1 nM-30 μM; 14 DIV to 20 DIV
[3] = test system: UBE3A-AS; assay: UBE3A-AS steady state RNA dose response in Angelman syndrome iPSC-derived neurons; type: cell-based, human; details: for pIC50: six days following treatment, 10-point dose curve, read-out: potency (IC50), UBE3A-AS
Procedure: The steady state RNA levels of target transcripts were measured using TaqMan quantitative reverse-transcription PCR (qRT-PCR) assays. Total reaction volume was 10 uL, including 2 μl of cDNA, 1× Gene Expression Master mix (4369016, Thermo Fisher Scientific, Waltham, Mass.), and 1× TaqMan primer assay (Thermo Fisher Scientific). Cycling conditions were 2 minutes at 50° C., 10 minutes at 95° C., and 40 cycles of 15 seconds at 95° C. and 1 minute at 60° C., with readings taken at the 60° C. step of every cycle. Reactions were run on a BIO-RAD T1000 CFX96 thermocycler (Bio-Rad Laboratories, Hercules Calif.), with internal control (PPIA, Hs99999904_m1, Thermo Fisher Scientific) and target [UBE3A-AS, Hs01372957_m1; SNORD116-11, Hs04275268_gH; SNORD115, Hs04275288_gH; IPW, Hs03455409_s1; SNORD109A/B, AP47WVR (Thermo Fisher Scientific); UBE3A: forward […] (SEQ ID NO:500); reverse: […] (SEQ ID NO:501); and, probe: […] (SEQ ID NO:502)] reactions performed together. Data was retrieved and analyzed with the BIORAD CFX Maestro software (Bio-Rad Laboratories). Samples with internal control Cq values ≥30 were filtered. Quality of data was visually inspected to identify discrepancies between technical and/or plate replicates. Measurements for inferential statistics and descriptive statistics consist of ΔΔCq values (2^−ΔΔCq=2^−(Cq[target]−Cq[internal control])−(Cq[target]−Cq[internal control])).
The potencies of […] and ASO-4.4.PS.L were then examined in iPSC derived-neurons from an Angelman syndrome patient with a maternal derived deletion of the 15q11-q13 region. Induced pluripotent stem cells were differentiated into neurons and then treated with a 10-point ½ log dose response curve of ASO-6.1.PO-1.O and ASO-4.4.PS.L [1 nM, 3 nM, 10 nM, 30 nM, 100 nM, 300 nM, 1 μM, 3 μM, 10 μM, and 30 μM (n=3)]. Six days following treatment, the steady state RNA levels of UBE3A-AS were measured and dose response curves were fitted as described above (FIG. 9A). […] The Emax values were similar (30 μM: ASO-4.4.PS.L=0.01±0.0007; ASO-6.1.PO-1.O=0.05±0.004) but not considered equivalent due to the confidence intervals [ASO-6.1.PO-1.O/ASO-4.4.PS.L Emax ratio: =−9.1 (Lower confidence limit=−224; Upper confidence limit=205)].
Angelman syndrome induced pluripotent stem cells derived neurons Angelman syndrome iPS cells (AG1-0 iPSCs) (ECN001, Kerafast, Boston, Mass.) were co-cultured on irradiated murine embryonic fibroblasts in human embryonic stem cell medium [DMEM/F12 (11330-057, Gibco Biosciences, Dublin, Ireland), 20% Knockout Serum Replacement (10828-028, Thermo Fisher Scientific), 1× Non-essential amino acids, 2 mM L-glutamine, […] 2-Mercaptoethanol, and 4 μg/mL basic Fibroblast Growth Factor]. For the first passage, AG1-0 cells were passaged according to the product manual for PluriSTEM Human ES/iPS Medium (SCM130, Millipore Sigma, Burlington, Mass.), which is feeder-free and utilizes Dispase II (SCM133, Millipore Sigma) to dissociate cells. Matrigel™ hESC-qualified Matrix (354277, Corning BD Biosciences, Corning, N.Y.) was used as an extracellular matrix. At the second passage, the matrix was switched to vitronectin (CC130, Millipore Sigma). During subsequent passages, areas of differentiation were manually removed until differentiated cells represented approximately <5% of the colonies. After four subsequent passages, AG1-0 cells were differentiated using the Millipore ES/iPS Neurogenesis Kit (SCR603, SCM110, and SCM111) but lacking vitronectin as an extracellular matrix. The initial passage was performed with EZ-LiFT (SCM139, Millipore Sigma) to obtain high quality iPS cells. Neural progenitor cells were frozen at stage zero (P0) and subsequently thawed for differentiation. Differentiation was performed on sterile culture plates coated with poly-D-lysine (10 μg/mL) and laminin [10 μg/mL (23017-015, Gibco) in differentiation medium (SCM111) for 10 days of differentiation. […]

Compound	effect on SNORD115 RNA levels (in words) [1]	effect on SNORD109A/B RNA levels (in words) [2]	Emax, normalized UBE3A-AS RNA level at 30 μM [3]	ASO-6.1.PO-1.O/ASO-4.4.PS.L Emax ratio ([3]; equivalence test)	ASO-6.1.PO-1.O/ASO-4.4.PS.L IC50 ratio ([3]; equivalence test)	pIC50 [3]	fold more potent than ASO-6.1.PO-1.O [3]
U^O*A^O*G^O*A^O*A^O*t*g*g*c*a*c*a*t*c*t*C^O*U^O*U^O*G^O*G^O [ASO-4]	significant effect on the RNA levels of IPW, SNORD115, and SNORD109A/B but not in a dose dependent manner	significant effect on the RNA levels of IPW, SNORD115, and SNORD109A/B but not in a dose dependent manner					
CC[C@@]1(O)C(=O)OCc2c1cc1n(c2=O)Cc2cc3c(CN(C)C)c(O)ccc3nc2-1 [Topotecan, reference compound]	significant effect on SNORD116, IPW, SNORD115, and SNORD109A/B RNA levels that was dose dependent	significant effect on SNORD116, IPW, SNORD115, and SNORD109A/B RNA levels that was dose dependent					
C^O*U^O*G^O*G^O-t*g*t*c*a*a*c*a*a*g-C^O*C^O*A^O*A^o [ASO-6.1.PO-1.O]			0.05±0.004	−9.1	0.96	5.91	
A^L*G^L*A^L*a*t*g*g*c*a*c*a*t*c*t*5mC^L*T^L*T^L*G^L (NNNATGGCACATCTNNNN; LNA gapmer, PS, 5-methylcytosine, chemistry not fully specified) [ASO-4.4.PS.L]			0.01±0.0007			6.36	approximately 2.7 fold

Reference: US11198869B2, “Angelman syndrome antisense treatment” (The Texas A&M University System, priority 2017, dated 2021)
